Experimental data taken from ChEMBL document CHEMBL1201862, “PubChem BioAssay data set” (2004).
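Test compounds were applied to cells in 96-well plates for 48 hours at 5 doses. GI50: concentration for 50% inhibition of growth.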 Activity calls are given as the source filed them. Rule as the data show it: active = GI50 up to about 1.1 µM and inactive = higher.

Key:
Assay in all cases: growth of human tumour cells (NCI), 48 h
CAKI-1 = test system: CAKI-1
A498 = test system: A498
MDA-N = test system: MDA-N
T47D = test system: T47D
SNB-75 = test system: SNB-75
SR = test system: SR
LOX IMVI = test system: LOX IMVI
KM12 = test system: KM12
SK-MEL-5 = test system: SK-MEL-5
NCI/ADR-RES = test system: NCI/ADR-RES
SF-539 = test system: SF-539
SN12C = test system: SN12C
NCI-H460 = test system: NCI-H460
HOP-62 = test system: HOP-62
COLO 205 = test system: COLO 205
SK-MEL-2 = test system: SK-MEL-2
IGROV-1 = test system: IGROV-1
NCI-H23 = test system: NCI-H23
U-251 = test system: U-251
SNB-19 = test system: SNB-19

SMILES | GI50 (CAKI-1) | GI50 (A498) | GI50 (MDA-N) | GI50 (T47D) | GI50 (SNB-75) | GI50 (SR) | GI50 (LOX IMVI) | GI50 (KM12) | GI50 (SK-MEL-5) | GI50 (NCI/ADR-RES) | GI50 (SF-539) | GI50 (SN12C) | GI50 (NCI-H460) | GI50 (HOP-62) | GI50 (COLO 205) | GI50 (SK-MEL-2) | GI50 (IGROV-1) | GI50 (NCI-H23) | GI50 (U-251) | GI50 (SNB-19)
OC1(c2ccc(Cl)cc2)c2c(c3ccccc3c3ccccc23)C2=NCCN21 (stereo not given) | 19.4 µM (inactive) | 19.1 µM (inactive) | 19.8 µM (inactive) | 15.4 µM (inactive) | 2.91 µM (inactive) | 4.42 µM (inactive) | 24.1 µM (inactive) | 16.7 µM (inactive) | 29 µM (inactive) | 11.5 µM (inactive) | 11.2 µM (inactive) | 16.3 µM (inactive) | 15.8 µM (inactive) | 11.3 µM (inactive) | 28.2 µM (inactive) | 18.7 µM (inactive) | 3.96 µM (inactive) | 11.6 µM (inactive) | 12.8 µM (inactive) | 13.6 µM (inactive)
CC(=O)Oc1cccc2c1C(=O)c1c(OC(C)=O)cc(C)cc1C2=O | > 100 µM (inactive) | 37.8 µM (inactive) | 58.5 µM (inactive) | 32.4 µM (inactive) | 36 µM (inactive) | 33 µM (inactive) | 69 µM (inactive) | 39.5 µM (inactive) | 29 µM (inactive) | 21.1 µM (inactive) | 26.3 µM (inactive) | 51.2 µM (inactive) | 26.1 µM (inactive) | 32.4 µM (inactive) | 58.2 µM (inactive) | 29 µM (inactive) | 25.7 µM (inactive) | 50.9 µM (inactive) | 30.2 µM (inactive) | 30.3 µM (inactive)
Cn1c2ccccc2n2c3ccccc3c(=O)c(C#N)c12 | 3.85 µM (inactive) | 18.3 µM (inactive) | > 48.5 µM (inactive) | 17.6 µM (inactive) | 15 µM (inactive) | 2.84 µM (inactive) | 4.38 µM (inactive) | 12 µM (inactive) | 2.27 µM (inactive) | 4.46 µM (inactive) | 13 µM (inactive) | 17.9 µM (inactive) | 3.23 µM (inactive) | 19.2 µM (inactive) | 9.2 µM (inactive) | 48.8 µM (inactive) | 6.01 µM (inactive) | 8.24 µM (inactive) | 12 µM (inactive) | 16.5 µM (inactive)
O=C(c1c(F)c(F)c(F)c(F)c1F)n1c(O)nc2ccccc21 | 5.82 µM (inactive) | 19.1 µM (inactive) | 7.33 µM (inactive) | 3.94 µM (inactive) | 16.5 µM (inactive) | 2.62 µM (inactive) | 3.83 µM (inactive) | 1.54 µM (inactive) | 15.2 µM (inactive) | 22 µM (inactive) | 13.6 µM (inactive) | 14.1 µM (inactive) | 12.8 µM (inactive) | 17.2 µM (inactive) | 12.9 µM (inactive) | 4.2 µM (inactive) | 11.4 µM (inactive) | 4.88 µM (inactive) | 12.5 µM (inactive) | 14.9 µM (inactive)
CCOC(=O)c1c(N2CCCC2)ncn(Cc2ccccc2)c1=S | 30.6 µM (inactive) | 49.4 µM (inactive) | > 100 µM (inactive) | 93.8 µM (inactive) | 47.6 µM (inactive) | > 100 µM (inactive) | > 100 µM (inactive) | > 100 µM (inactive) | 65.3 µM (inactive) | > 100 µM (inactive) | > 100 µM (inactive) | > 100 µM (inactive) | > 100 µM (inactive) | > 100 µM (inactive) | > 100 µM (inactive) | > 100 µM (inactive) | > 100 µM (inactive) | > 100 µM (inactive) | > 100 µM (inactive) | > 100 µM (inactive)
CSC1=NN(C(C)=O)C(C(OC(C)=O)C(OC(C)=O)C(OC(C)=O)C(COC(C)=O)OC(C)=O)S1 (stereo not given) | > 100 µM (inactive) | > 100 µM (inactive) | > 100 µM (inactive) | > 100 µM (inactive) | > 100 µM (inactive) | > 100 µM (inactive) | > 100 µM (inactive) | > 100 µM (inactive) | > 100 µM (inactive) | > 100 µM (inactive) | > 100 µM (inactive) | > 100 µM (inactive) | > 100 µM (inactive) | > 100 µM (inactive) | > 100 µM (inactive) | > 100 µM (inactive) | > 100 µM (inactive) | > 100 µM (inactive) | > 100 µM (inactive) | > 100 µM (inactive)
CC[C@@]1(O)C(=O)OCc2c1cc1n(c2=O)Cc2c-1nc1ccccc1c2/C=N\NC(=O)C(N)Cc1c[nH]c2ccccc12 (stereo not given in full) | 0.0578 µM (active) | 0.499 µM (active) | 2.02 µM (inactive) | 0.0743 µM (active) | 0.0745 µM (active) | < 0.01 µM (active) | 0.0675 µM (active) | 2.84 µM (inactive) | 0.521 µM (active) | 0.809 µM (active) | 0.101 µM (active) | 0.108 µM (active) | 0.104 µM (active) | 0.0556 µM (active) | 18.2 µM (inactive) | 5.93 µM (inactive) | 2.86 µM (inactive) | 0.124 µM (active) | 0.0502 µM (active) | < 0.0198 µM (active)
C[C@@H]1Nc2cc(NC(=O)OCCF)nc(N)c2N=C1c1ccccc1 | > 100 µM (inactive) | 19.8 µM (inactive) | < 0.0001 µM (active) | 61.9 µM (inactive) | 32.7 µM (inactive) | < 0.0001 µM (active) | < 0.0001 µM (active) | < 0.0001 µM (active) | < 0.0001 µM (active) | < 0.0001 µM (active) | < 0.0001 µM (active) | < 0.0001 µM (active) | < 0.0001 µM (active) | < 0.0001 µM (active) | < 0.0001 µM (active) | < 0.01 µM (active) | < 0.0001 µM (active) | < 0.0001 µM (active) | < 0.0001 µM (active) | 0.0409 µM (active)
CO/C(=N\N=C\c1cccc(C(F)(F)F)c1)c1ccncc1 | 1.8 µM (inactive) | 9.91 µM (inactive) | 2.13 µM (inactive) | 37.2 µM (inactive) | 15.5 µM (inactive) | 5.75 µM (inactive) | 7.76 µM (inactive) | 5.19 µM (inactive) | 11.4 µM (inactive) | 1.82 µM (inactive) | 4.67 µM (inactive) | 3.67 µM (inactive) | 4.97 µM (inactive) | 2.93 µM (inactive) | 13.5 µM (inactive) | 2.89 µM (inactive) | 10 µM (inactive) | 12 µM (inactive) | 5.14 µM (inactive) | 9.08 µM (inactive)
CCOP(=O)(O)C(Nc1ccc(/N=N/c2ccccc2)cc1)c1ccc(C(Nc2ccc(/N=N/c3ccccc3)cc2)P(=O)(O)OCC)cc1 (stereo not given) | 44.6 µM (inactive) | 32 µM (inactive) | 19.4 µM (inactive) | 15.3 µM (inactive) | 14.7 µM (inactive) | 19.8 µM (inactive) | 15.6 µM (inactive) | 16.5 µM (inactive) | 16.6 µM (inactive) | 27.4 µM (inactive) | 19.2 µM (inactive) | 19.2 µM (inactive) | 22 µM (inactive) | 18.5 µM (inactive) | 15.3 µM (inactive) | 18.2 µM (inactive) | 19.7 µM (inactive) | 29.2 µM (inactive) | 18.1 µM (inactive) | 21.5 µM (inactive)
O=C(/C=C/c1ccccc1O)CC(=O)/C=C/c1ccccc1O | 17.9 µM (inactive) | 23.3 µM (inactive) | 2.97 µM (inactive) | 5.45 µM (inactive) | > 46.2 µM (inactive) | 2.67 µM (inactive) | 1.32 µM (inactive) | 6.4 µM (inactive) | 5.32 µM (inactive) | 5.01 µM (inactive) | 5.9 µM (inactive) | 5.38 µM (inactive) | 7.45 µM (inactive) | 11.8 µM (inactive) | 3.95 µM (inactive) | 8.79 µM (inactive) | 5.73 µM (inactive) | 2.81 µM (inactive) | 4.26 µM (inactive) | 9.84 µM (inactive)
COC(=O)C1c2c(c3ccccc3n2C(=O)OC)CCN2CCC1C(S(=O)(=O)c1ccccc1)C2=O (stereo not given) | > 100 µM (inactive) | > 100 µM (inactive) | > 100 µM (inactive) | > 100 µM (inactive) | > 100 µM (inactive) | 87.7 µM (inactive) | > 100 µM (inactive) | > 100 µM (inactive) | > 100 µM (inactive) | > 100 µM (inactive) | > 100 µM (inactive) | > 100 µM (inactive) | > 100 µM (inactive) | 70.3 µM (inactive) | > 100 µM (inactive) | > 100 µM (inactive) | > 100 µM (inactive) | > 100 µM (inactive) | > 100 µM (inactive) | 94.6 µM (inactive)
C[C@@H]1C[C@H]2CC[C@H](O2)[C@H](C)C(=O)O[C@@H](C)C[C@@H]2CC[C@@H](O2)[C@@H](C)C(=O)O[C@H](C)C[C@H]2CC[C@H](O2)[C@H](C)C(=O)O[C@@H](C)C[C@@H]2CC[C@@H](O2)[C@@H](C)C(=O)O1 | 0.826 µM (active) | 0.859 µM (active) | 0.404 µM (active) | 0.189 µM (active) | 0.338 µM (active) | 0.495 µM (active) | 0.305 µM (active) | 0.256 µM (active) | 0.154 µM (active) | 2.17 µM (inactive) | 1.58 µM (inactive) | 0.366 µM (active) | 0.426 µM (active) | 0.319 µM (active) | 0.155 µM (active) | 0.245 µM (active) | 0.34 µM (active) | 0.224 µM (active) | 0.366 µM (active) | 0.366 µM (active)
